The source of these data is patent US20230144211A1, “ANTIFOLATE LINKER-DRUGS AND ANTIBODY-DRUG CONJUGATES” (Byondis B.V., priority 2020, published 2023).

Assay in all cases: In vitro cell viability assay (CellTiter-Glo, 6 days)
What all share (format): cell-based, human

Assay [1] relates to Jurkat NucLight Red cells. The following applies: free antifolate drugs. As for the experimental part:
(§1) FaDu, BxPC-3, HeLa, MV4-11, and RAJI cell lines were obtained from Deutsche Sammlung von Mikroorganismen und Zellkulturen (Leipzig, Germany). Jurkat NucLight Red cells were obtained from Essen BioScience Inc. (Ann Arbor, Mich., USA). SK-BR-3 and SK-OV-3 cells were cultured in McCoys 5A medium (Lonza; Walkersville, Md., USA) supplemented with 10% v/w Fetal Bovine Serum (FBS), Heat-inactivated (HI) (Gibco-Life Technologies; Carlsbad, Calif.) and 80 U/mL Pen/Strep (Gibco-Life Technologies), at 37° C. in a humidified incubator under 5% CO2 atmosphere. SW-620 cells were similarly maintained in RPMI 1640 medium (Lonza), containing 10% v/w FBS HI and 80 U/mL Pen/Strep. A-549 cells were similarly maintained in F-12K Nutrient Mixture (1×) (Gibco-Life Technologies) media supplemented with 80 U/mL Pen/Strep and 5% v/w FBS, which was Qualified (Q) (Gibco-Life Technologies). BT-474 and AU-565 cells were similarly maintained in RPMI 1640 medium (Lonza), containing 10% v/w FBS, which was Qualified (Q) (Gibco-Life Technologies), and 80 U/mL Pen/Strep. […] Jurkat NucLight Red cells were similarly maintained in RPMI 1640 medium (Lonza), containing 10% v/w FBS HI, 80 U/mL Pen/Strep and 0.5 μg/mL Puromycin (Gibco-Life Technologies). FaDu cells were cultured in EMEM medium (Lonza) supplemented with 10% v/w FBS HI (Gibco-Life Technologies), 1× GlutaMAX (Gibco-Life Technologies), and 80 U/mL Pen/Strep (Gibco-Life Technologies), at 37° C. in a humidified incubator under 5% CO2 atmosphere.
(§2) After an overnight incubation, 10 serial log 10 dilutions of the free drugs were made in DMSO (Sigma-Aldrich). These free drug dose-response curves were 10-times further diluted in complete growth medium. For the ADCs according to the invention 10 serial log 10 dilutions were made in complete growth medium. 10 μL of a composition comprising a free drug or an ADC according to the invention was added to the assay plate (final DMSO content for free drugs was 1%). […] Cell viability was assessed after 6 days using a luminescent assay kit (CellTiter-Glo™ (CTG), Promega Corporation) according to the manufacturer's instructions. Percentage cell survival was calculated by dividing the measured luminescence for each free drug or ADC according to the concentration with the average mean of untreated cells (1% or 0.1% DMSO control (for free drugs) or 100% complete growth medium (for ADCs)) multiplied by 100.
(§3) Curves were fitted by non-linear regression using the sigmoidal dose-response equation with variable slope (four parameters) using curve-fitting software (GraphPad Prism, version 9.4.0 for Windows, GraphPad, San Diego, Calif. or Electronic Laboratory Notebook (ELN) add-in BioAssay, version 19.1.0.0218, Perkin Elmer, Waltham, Mass.). Relative IC50 values were calculated as the concentration that gives a response halfway between bottom and top of the curve, when using a 4-parameter logistic fit. Data were reported as mean IC50 value of at least one experiment performed in duplicate.

For another assay, the system named is SK-BR-3 cells. As for the experimental part: as §1
as §2, with “Cell viability was assessed after 6 days using a luminescent assay kit (CellTiter-Glo™ (CTG), Promega Corporation) according to the manufacturer's instructions.” left out
as §3

For the next assay, the system named is AU-565 cells. As for the experimental part:
as §1
as §2, with “Cell viability was assessed after 6 days using a luminescent assay kit (CellTiter-Glo™ (CTG), Promega Corporation) according to the manufacturer's instructions.” left out
as §3

Setting [2] is: Homo sapiens, SK-BR-3, free antifolate drugs, Table 1c.
Where [3] appears, read: Homo sapiens, AU565, free antifolate drugs, Table 1c.
[4] abbreviates: Homo sapiens, SK-BR-3, free antifolate drugs, Table 1b, # no full dose-response curve.
Where [5] appears, read: Homo sapiens, AU565, free antifolate drugs, Table 1b.
The mark [6] stands for this setting: free antifolate drugs, Table 1c.

For the compound `Nc1ccc(C(=O)NCCC[C@H](NC(=O)c2ccc(NCc3cnc4nc(N)nc(N)c4n3)c(N)c2)C(=O)O)c(-c2nn[nH]n2)c1` [AFD-006], the IC50 in assay [1] (Homo sapiens, Jurkat, Table 1c) worked out at 5.98 nM; with SK-BR-3 cells (setting [2]), 5.15 nM; in the assay on AU-565 cells (setting [3]), 2.8 nM.

As to `Nc1ccc(C(=O)NCCC[C@H](NC(=O)c2ccc(NCc3cnc4nc(N)nc(N)c4n3)c(O)c2)C(=O)O)c(-c2nn[nH]n2)c1` [AFD-002], the IC50 in assay [1] (Homo sapiens, Jurkat, Table 1b) is 15 nM; with SK-BR-3 cells (setting [4]) it was 20 nM; with AU-565 cells (setting [5]), 14 nM.

Take `Nc1ccc(C(=O)NCCC[C@H](NC(=O)c2ccc3c(c2)CCN3Cc2cnc3nc(N)nc(N)c3n2)C(=O)O)c(-c2nn[nH]n2)c1` [AFD-008]: the IC50 in assay [1] (Homo sapiens, Jurkat, Table 1c) came out at 0.87 nM; in the assay on SK-BR-3 cells (setting [2]) it was 1.5 nM; with AU-565 cells (setting [3]), 0.76 nM.

Take `Nc1ccc(C(=O)NCCC[C@H](NC(=O)c2ccc(SCc3cnc4nc(N)nc(N)c4n3)cc2)C(=O)O)c(-c2nn[nH]n2)c1` [AFD-005]: the half-inhibitory concentration (IC50) in assay [1] (Homo sapiens, Jurkat, Table 1c) is 5.6 nM; in the assay on SK-BR-3 cells (setting [2]), roughly 22 nM; in the assay on AU-565 cells (setting [3]) it was roughly 8 nM.

For `Nc1ccc(C(=O)NCCC[C@H](NC(=O)c2ccc(NCc3cnc4nc(N)nc(N)c4n3)cc2O)C(=O)O)c(-c2nn[nH]n2)c1` [AFD-004], the IC50 in assay [1] (Homo sapiens, Jurkat, Table 1c) was 0.68 nM; in the assay on SK-BR-3 cells (setting [2]), 0.67 nM; with AU-565 cells (setting [3]), 0.37 nM.

Regarding `CN(Cc1cnc2nc(N)nc(N)c2n1)c1ccc(C(=O)N[C@@H](CCCNC(=O)c2ccc(N)cc2-c2nn[nH]n2)C(=O)O)s1` [XC9, (S)-5-(4-Amino-2-(2H-tetrazol-5-yl)benzamido)-2-(5-(((2,4-diaminopteridin-6-yl)methyl)(methyl)amino)thiophene-2-carboxamido)pentanoic acid], the values for the IC50 (in assay [1] (Table 1c); in the assay with SK-BR-3 cells (setting [6]); in the assay on AU-565 cells (setting [6])) were 2.41 nM, 3.77 nM and 1.95 nM, respectively.

Take `Nc1ccc(C(=O)NCCC[C@H](NC(=O)c2ccc3c(ccn3Cc3cnc4nc(N)nc(N)c4n3)c2)C(=O)O)c(-c2nn[nH]n2)c1` [AFD-009]: the IC50 in assay [1] (Homo sapiens, Jurkat, Table 1c) was 1.96 nM; in the assay with SK-BR-3 cells (setting [2]), 2.82 nM; in the assay with AU-565 cells (setting [3]), 1.15 nM.

Turning to `C#CCN(Cc1cnc2nc(N)nc(N)c2n1)c1ccc(C(=O)N[C@@H](CCCNC(=O)c2ccc(N)cc2-c2nn[nH]n2)C(=O)O)cc1` [AFD-003], the IC50 was 1.4 nM in assay [1] (Homo sapiens, Jurkat, Table 1b); 2.09 nM in the assay on SK-BR-3 cells (setting [4]); 0.98 nM with AU-565 cells (setting [5]).

Take `Nc1ccc(C(=O)NCCC[C@H](NC(=O)c2ccc(OCc3cnc4nc(N)nc(N)c4n3)cc2)C(=O)O)c(-c2nn[nH]n2)c1` [AFD-001]: the IC50 in assay [1] (Homo sapiens, Jurkat, Table 1b) worked out at 4.92 nM; in the assay on SK-BR-3 cells (setting [4]), 25 nM; with AU-565 cells (setting [5]), 9.18 nM.

In the case of `CN(Cc1cnc2nc(N)nc(N)c2n1)c1ccc(C(=O)N[C@@H](CCCNC(=O)c2ccc(N)cc2-c2nn[nH]n2)C(=O)O)s1` [XC5, (S)-5-(4-amino-2-(2H-tetrazol-5-yl)benzamido)-2-(5-(((2,4-diaminopteridin-6-yl)methyl)(methyl)amino)thiophene-2-carboxamido)pentanoic acid], the figures for the IC50 (in assay [1] (Table 1c); in the assay on SK-BR-3 cells (setting [6]); in the assay on AU-565 cells (setting [6])) were roughly 30 nM, roughly 100 nM and roughly 28 nM, respectively.

As for `Nc1ccc(C(=O)NCCC[C@H](NC(=O)c2ccc(CCc3cnc4nc(N)nc(N)c4n3)cc2)C(=O)O)c(-c2nnn[nH]2)c1` [XT128, (S)-5-(4-Amino-2-(1H-tetrazol-5-yl)benzamido)-2-(4-(2-(2,4-diaminopteridin-6-yl)ethyl)benzamido)pentanoic acid], the concentration for half-maximal inhibition (IC50) in assay [1] (Homo sapiens, Jurkat, Table 1b) is 0.61 nM; in assay [1] (Homo sapiens, Jurkat, Table 1c), 0.71 nM; in the assay on SK-BR-3 cells (setting [4]) it was 0.57 nM; in the assay with SK-BR-3 cells (setting [2]), 0.78 nM; in the assay with AU-565 cells (setting [5]) it was 0.34 nM; in the assay with AU-565 cells (setting [3]) it was 0.36 nM.

As to `COc1cc(C(=O)N[C@@H](CCCNC(=O)c2ccc(N)cc2-c2nnn[nH]2)C(=O)O)ccc1NCc1cnc2nc(N)nc(N)c2n1` [XT132, (S)-5-(4-Amino-2-(1H-tetrazol-5-yl)benzamido)-2-(4-(((2,4-diaminopteridin-6-yl)methyl)amino)-3-methoxybenzamido)pentanoic acid], the IC50 in assay [1] (Homo sapiens, Jurkat, Table 1b) was determined as 1.19 nM; with SK-BR-3 cells (setting [4]), 2.15 nM; in the assay on AU-565 cells (setting [5]), 0.97 nM.

As for `Nc1ccc(C(=O)NCCC[C@H](NC(=O)c2ccc(NCc3cnc4nc(N)nc(N)c4n3)cc2N)C(=O)O)c(-c2nnn[nH]2)c1` [AFD-010], the IC50 in assay [1] (Homo sapiens, Jurkat, Table 1c) was found to be 2.31 nM; with SK-BR-3 cells (setting [2]), 2.4 nM; with AU-565 cells (setting [3]), 1.17 nM.

Regarding `Nc1ccc(C(=O)NCCC[C@H](NC(=O)c2ccc3c(c2)CCCN3Cc2cnc3nc(N)nc(N)c3n2)C(=O)O)c(-c2nn[nH]n2)c1` [AFD-007], the IC50 stood at 2.01 nM in assay [1] (Homo sapiens, Jurkat, Table 1c); 1.06 nM in the assay on SK-BR-3 cells (setting [2]); 0.68 nM with AU-565 cells (setting [3]).

On to `Nc1ccc(C(=O)NCCC[C@H](NC(=O)c2ccc(NCc3ccc4nc(N)nc(N)c4c3Cl)s2)C(=O)O)c(-c2nnn[nH]2)c1` [XT126, (S)-5-(4-Amino-2-(1H-tetrazol-5-yl)benzamido)-2-(5-(((2,4-diamino-5-chloroquinazolin-6-yl)methyl)amino)thiophene-2-carboxamido)pentanoic acid], for which the IC50 in assay [1] (Homo sapiens, Jurkat, Table 1b) amounted to 5.01 nM; in the assay on SK-BR-3 cells (setting [4]), 2.91 nM; in the assay on AU-565 cells (setting [5]) it was 2.37 nM.
